From patent US20070134315A1, “Orally administrable extended release pellet and tablet formulations of a highly water soluble compound” (priority 2005, published 2007)
In brackets after ≈: the same amount, converted by molar mass.

Columns and labels:
[1] = Water solubility of isovaleramide and dose number; type: physicochemical
Experimental: The water solubility of the drug substance as used herein, is defined according to its dose number, Do, for oral drug delivery. The dose number for a drug is defined by the ratio of its dose concentration to its saturation solubility in a reference fluid according to the following calculation: [formula]
where: Mo is the dose of the drug (mg), Vo is the reference fluid volume (mL) and Cs is the saturation solubility of the drug in the reference fluid (mg/mL) at 37° C. Representative reference fluids for oral drug delivery are aqueous based solutions within the relevant physiologic pH range of the gastrointestinal tract (i.e., pH 1-pH 7.5). A representative reference fluid volume for oral drug delivery is 250 mL. A drug substance is considered to be highly soluble if at its highest dose the Do value is ≦1. […] The solubility of isovaleramide in water at 37° C. is approximately 70 mg/mL. The upper range of a single daily dose of isovaleramide could be 1200 mg to 2400 mg. The Do number range for isovaleramide, calculated using a reference volume of 250 mL and the single daily dose range of 1200 mg to 2400 mg, is 0.07 to 0.14.

[2] = Isothermal thermogravimetric analysis (TGA) of sublimation; type: physicochemical
Experimental: The temperature dependent physical instability of the drug substance was studied in detail in order to determine the appropriate pharmaceutical formulation processes and temperature ranges suitable for the preparation of the pharmaceutical compositions of isovaleramide. An automated thermogravimetric analysis (TGA) method was used to determine the relative rates of isovaleramide sublimation. Isothermal TGA was conducted at 30° C., 35° C., 40° C., 45° C., 50° C. and 60° C. for 24 hours. Samples were prepared by first taring a platinum TGA pan on the TGA system. A sample amount of isovaleramide of 10 mg-15 mg was then added to the pan and distributed evenly. The sample pan was then loaded onto the TGA autosampler for subsequent analysis. Samples were initially equilibrated at their respective isothermal temperature and then monitored for 24 hours. Data sampling was accomplished at a rate of 600 seconds/point. Sample replicates ranged from 1 to 3. TGA instrument and operating conditions were as follows: […]

pH dependence of solubility ([1]; physiologic pH range of the gastrointestinal tract): pH independent solubility
solubility ([1]; water, 37° C.): ~70 mg/mL (≈ 692 mM)
Reduction in Weight % ([2]; isothermal 30° C., 1 hr): 0.05%
Reduction in Weight % ([2]; isothermal 30° C., 3 hr): 0.12%
Reduction in Weight % ([2]; isothermal 30° C., 6 hr): 0.25%
Reduction in Weight % ([2]; isothermal 30° C., 9 hr): 0.41%
Reduction in Weight % ([2]; isothermal 30° C., 12 hr): 0.62%
Reduction in Weight % ([2]; isothermal 30° C., 15 hr): 0.82%
Reduction in Weight % ([2]; isothermal 30° C., 18 hr): 1.01%
Reduction in Weight % ([2]; isothermal 30° C., 21 hr): 1.20%
Reduction in Weight % ([2]; isothermal 30° C., 24 hr): 1.32%
Reduction in Weight % ([2]; isothermal 35° C., 1 hr, mean of three): 0.10%
Reduction in Weight % ([2]; isothermal 35° C., 3 hr, mean of three): 0.28%
Reduction in Weight % ([2]; isothermal 35° C., 6 hr, mean of three): 0.55%
Reduction in Weight % ([2]; isothermal 35° C., 9 hr, mean of three): 0.83%
Reduction in Weight % ([2]; isothermal 35° C., 12 hr, mean of three): 1.12%
Reduction in Weight % ([2]; isothermal 35° C., 15 hr, mean of three): 1.41%
Reduction in Weight % ([2]; isothermal 35° C., 18 hr, mean of three): 1.67%
Reduction in Weight % ([2]; isothermal 35° C., 21 hr, mean of three): 1.92%
Reduction in Weight % ([2]; isothermal 35° C., 24 hr, mean of three): 2.17%
Reduction in Weight % ([2]; isothermal 40° C., 1 hr, mean of three): 0.14%
Reduction in Weight % ([2]; isothermal 40° C., 3 hr, mean of three): 0.53%
Reduction in Weight % ([2]; isothermal 40° C., 6 hr, mean of three): 1.10%
Reduction in Weight % ([2]; isothermal 40° C., 9 hr, mean of three): 1.65%
Reduction in Weight % ([2]; isothermal 40° C., 12 hr, mean of three): 2.27%
Reduction in Weight % ([2]; isothermal 40° C., 15 hr, mean of three): 2.83%
Reduction in Weight % ([2]; isothermal 40° C., 18 hr, mean of three): 3.43%
Reduction in Weight % ([2]; isothermal 40° C., 21 hr, mean of three): 4.02%
Reduction in Weight % ([2]; isothermal 40° C., 24 hr, mean of three): 4.58%
Reduction in Weight % ([2]; isothermal 45° C., 1 hr): 0.27%
Reduction in Weight % ([2]; isothermal 45° C., 3 hr): 0.91%
Reduction in Weight % ([2]; isothermal 45° C., 6 hr): 1.97%
Reduction in Weight % ([2]; isothermal 45° C., 9 hr): 2.95%
Reduction in Weight % ([2]; isothermal 45° C., 12 hr): 3.95%
Reduction in Weight % ([2]; isothermal 45° C., 15 hr): 4.98%
Reduction in Weight % ([2]; isothermal 45° C., 18 hr): 6.02%
Reduction in Weight % ([2]; isothermal 45° C., 21 hr): 7.05%
Reduction in Weight % ([2]; isothermal 45° C., 24 hr): 8.01%
Reduction in Weight % ([2]; isothermal 50° C., 1 hr): 0.54%
Reduction in Weight % ([2]; isothermal 50° C., 3 hr): 1.65%
Reduction in Weight % ([2]; isothermal 50° C., 6 hr): 3.35%
Reduction in Weight % ([2]; isothermal 50° C., 9 hr): 5.05%
Reduction in Weight % ([2]; isothermal 50° C., 12 hr): 6.68%
Reduction in Weight % ([2]; isothermal 50° C., 15 hr): 8.35%
Reduction in Weight % ([2]; isothermal 50° C., 18 hr): 10.04%
Reduction in Weight % ([2]; isothermal 50° C., 21 hr): 11.77%
Reduction in Weight % ([2]; isothermal 50° C., 24 hr): 13.43%
Reduction in Weight % ([2]; isothermal 60° C., 1 hr, mean of three): 1.98%
Reduction in Weight % ([2]; isothermal 60° C., 3 hr, mean of three): 5.96%
Reduction in Weight % ([2]; isothermal 60° C., 6 hr, mean of three): 11.90%
Reduction in Weight % ([2]; isothermal 60° C., 9 hr, mean of three): 17.79%
Reduction in Weight % ([2]; isothermal 60° C., 12 hr, mean of three): 23.61%
Reduction in Weight % ([2]; isothermal 60° C., 15 hr, mean of three): 29.37%
Reduction in Weight % ([2]; isothermal 60° C., 18 hr, mean of three): 35.03%
Reduction in Weight % ([2]; isothermal 60° C., 21 hr, mean of three): 40.53%
Reduction in Weight % ([2]; isothermal 60° C., 24 hr, mean of three): 44.74%
Compound: CC(C)CC(N)=O [Isovaleramide, isovaleramide]
